From patent publication US20060069043A1, “Chiral separation, characterization and biological action of optically active isomers of digoxin” (priority 2004, published 2006)
Where two headings read alike, the source gives them in different places.

Experiments:
serum protein [1] = assay: In vitro drug studies: ability to induce changes in digitoxin serum protein binding; assay type: in vitro ADME; conditions: procainamide 5 mg/ml, phenytoin 50 mg/ml, heparin 5 IU/ml, rifampicillin 4.5 μg/ml
Procedure: The ability to induce changes in digitoxin serum protein binding was tested for the following drugs: procainamide (5 mg/ml), phenytoin (50 mg/ml), heparin (5 IU/ml), and rifampicillin (4.5 μg/ml). […] Identical procedures will be used for digoxin isolates.

guinea pig = assay: Effect on PR interval (AV node conduction) and cardiac contractibility in anesthetized open-chest guinea pig; assay type: in vivo; conditions: pentobarbital anesthesia, IV infusion at 6 μg/kg/min continuously
Procedure: The guinea pig or rat is anesthetized with pentobarbital at 40 mg/kg IP, then connected to an EKG recorder. The animal is then placed on a small animal respirator. Aseptic surgical instruments are soaked in ethanol and then flamed. An incision is made in the chest wall to open the chest. A Walton Brody stain gauge arch is sutured to the right ventricle to measure contractile changes. The refractoriness of the AV node is determined by measuring the PR interval on the surface EKG. Graphs can be created from the data displaying the dose related change in the PR interval to the dose related contractile augmentation. Digoxin or chiral isolates are infused through the jugular vein at concentrations (from 0.1 μM and then to 10 μM) at a constant rate by infusion pump, to determine the differential effects on the AV node and cardiac contractibility. The infusions are continued to a 50% level augmentation in contractibility or the development of ventricular tachycardia. To maintain a consistent level of anesthesia, pentobarbital 20 mg/kg IP or 10 mg/kg IV for more immediate action at 30-minute intervals may be administered.
The effect of digoxin and one of the two chiral isomers was evaluated in the guinea pig. Guinea pigs were anesthetized with pentobarbital. […] An EKG was continuously recorded. Conduction through the AV node was determined by measuring the PR interval on the surface EKG. […]

[2] = system: gram-negative and gram-positive bacteria; conditions: against both gram-negative and gram-positive bacteria; cited from earlier work
serum protein [3] = assay: Serum protein binding by equilibrium dialysis; assay type: in vitro ADME, patients; conditions: human, read-out: digitoxin binding (protein binding), mean (converted)
Procedure: Equilibrium was obtained after 16 hours when titrated glycoside was added to serum. When added to the buffer phase, equilibrium was reached after 60 hours. Distribution of digitoxin, for example, in buffer-buffer control, was around 50% (49.4 to 50.6%). Absorption of ^3H-labeled glycoside to the dialysis membrane was 0.2% of the added ^3H-glycoside. Digitoxin protein binding was dependent on albumin content. […] No trace of protein was found when adding concentrated perchloric acid to the buffer phase. Counting efficacy was the same whether serum or buffer aliquots were added to the counting fluid. The counting error for buffer samples containing the smallest amount of radioactivity was 1% to 1.5%. Chamber equilibrium dialysis gave similar results. […] No significant change in digitoxin binding was found when the sera from 9 patients were dialyzed at 20° C. (mean, 96.7%) and at 37° C. (mean, 96.9%). Digoxin isolates will be used under similar conditions.

serum protein [4] = assay: Free fraction by centrifugation; assay type: in vitro ADME; conditions: for fraction unbound at 60 min: centrifugation time 60 minutes
Procedure: Free fraction of digitoxin increased with centrifugation time from 18% at 10 minutes to 37% at 80 minutes (500 g) without reaching plateau levels.

## rifampicillin
Serum protein [1]
  changes in the serum protein binding of digitoxin: None of these induced significant changes

## CC1O[C@@H](O[C@H]2C(O)C[C@H](O[C@H]3C(O)C[C@H](OC4CC[C@@]5(C)[C@H](CC[C@@H]6[C@@H]5C[C@@H](O)[C@]5(C)[C@@H](C7=CC(=O)OC7)CC[C@]65O)C4)OC3C)OC2C)CC(O)[C@@H]1O (stereo partly shown) [Digoxin]
Guinea pig
  PR interval on the surface EKG (conduction through the AV node): progressive increase in PR interval
  cardiac contractibility as measured by the strain-gauge arch: increase in cardiac contractibility

## CC1COc2c(N3CCN(C)CC3)c(F)cc3c(=O)c(C(=O)O)cn1c23 (single isomer, unassigned; (-)) [(−)-Ofloxacin]
[2]
  activity relative to the racemate: 8-128 times

## C[C@H]1O[C@@H](O[C@H]2[C@@H](O)C[C@H](O[C@H]3[C@@H](O)C[C@H](O[C@H]4CC[C@@]5(C)[C@H](CC[C@@H]6[C@@H]5CC[C@]5(C)[C@@H](C7=CC(=O)OC7)CC[C@]65O)C4)O[C@@H]3C)O[C@@H]2C)C[C@H](O)[C@@H]1O [digitoxin]
Serum protein [3]; sera from 9 patients dialyzed at 20° C.
  fraction unbound: 0.033
Serum protein [3]; sera from 9 patients dialyzed at 37° C.
  fraction unbound: 0.031
Serum protein [4]; centrifugation time 10 minutes, 500 g
  fraction unbound at 10 min: 0.18
Serum protein [4]; 135 g
  fraction unbound at 60 min: 0.059
Serum protein [4]; 560 g
  fraction unbound at 60 min: 0.157
Serum protein [4]; centrifugation time 80 minutes, 500 g
  fraction unbound at 80 min: 0.37

## O=C1NC(=O)C(c2ccccc2)(c2ccccc2)N1 [phenytoin]
Serum protein [1]
  changes in the serum protein binding of digitoxin: None of these induced significant changes

## heparin
Serum protein [1]
  changes in the serum protein binding of digitoxin: None of these induced significant changes

## CCN(CC)CCNC(=O)c1ccc(N)cc1 [procainamide]
Serum protein [1]
  changes in the serum protein binding of digitoxin: None of these induced significant changes
